Reference: ChEMBL document CHEMBL1130624, “In vitro inhibitory effects of DNA topoisomerase II by fernane-type triterpenoids isolated from a Euphorbia genus” (Bioorg Med Chem Lett, 1998)
Each block holds one molecule with its values, some of them ahead of it. Calls of active or inactive are those of the source. No cut-off for these calls is given here.

Assays:
Assay type in all cases: protein assay
[1] = target: T1, DNA topoisomerase II (Homo sapiens) (UniProt P11388+Q02880); assay: Compound was tested in vitro for inhibitory effect on DNA topoisomerase II activity at a concentration of 100 uM; No inhibition
[2] = target: T1, DNA topoisomerase II (Homo sapiens); assay: Compound was tested in vitro for inhibitory effect on DNA topoisomerase II activity at a concentration of 50 uM; Slight inhibition
[3] = target: T1, DNA topoisomerase II (Homo sapiens); assay: Compound was tested in vitro for inhibitory effect on DNA topoisomerase II activity at a concentration of 3.2 uM; No inhibition
[4] = target: T1, DNA topoisomerase II (Homo sapiens); assay: Compound was tested in vitro for inhibitory effect on DNA topoisomerase II activity at a concentration of 25 uM; No inhibition
[5] = target: T1, DNA topoisomerase II (Homo sapiens); assay: Compound was tested in vitro for inhibitory effect on DNA topoisomerase II activity at a concentration of 100 uM; Evidence inhibition
[6] = target: T1, DNA topoisomerase II (Homo sapiens); assay: Compound was tested in vitro for inhibitory effect on DNA topoisomerase II activity at a concentration of 6.3 uM; No inhibition
[7] = target: T1, DNA topoisomerase II (Homo sapiens); assay: Compound was tested in vitro for inhibitory effect on DNA topoisomerase II activity at a concentration of 12.5 uM; No inhibition
[8] = target: T1, DNA topoisomerase II (Homo sapiens); assay: Compound was tested in vitro for inhibitory effect on DNA topoisomerase II activity at a concentration of 25 uM; […]
[9] = target: T1, DNA topoisomerase II (Homo sapiens); assay: Compound was tested in vitro for inhibitory effect on DNA topoisomerase II activity at a concentration of 12.5 uM; Evidence inhibition
[10] = target: T1, DNA topoisomerase II (Homo sapiens); assay: Compound was tested in vitro for inhibitory effect on DNA topoisomerase II activity at a concentration of 6.3 uM; Slight inhibition
[11] = target: T1, DNA topoisomerase II (Homo sapiens); assay: Compound was tested in vitro for inhibitory effect on DNA topoisomerase II activity at a concentration of 50 uM; […]
[12] = target: T1, DNA topoisomerase II (Homo sapiens); assay: Compound was tested in vitro for inhibitory effect on DNA topoisomerase II activity at a concentration of 100 uM; […]

Activity [1]: inactive
SMILES: CC(C)[C@H]1CC[C@@H]2[C@]1(C)CC[C@]1(C)C3=C(CC[C@@]21C)[C@@]1(C)CC[C@H](O)C(C)(C)C1CC3 (some centres undefined)

Activity [1]: inactive
SMILES: CC(C)[C@H]1CC[C@@H]2[C@]1(C)CC[C@]1(C)C3=C(C(=O)C[C@@]21C)[C@@]1(C)CC[C@H](O)C(C)(C)C1C[C@@H]3O (some centres undefined)

Activity [2]: Slight inhibition
Activity [3]: inactive
Activity [4]: inactive
Activity [5]: Evidence inhibition
Activity [6]: inactive
Activity [7]: inactive
SMILES: C=C(C)[C@@H]1CC[C@@H]2C(=CC[C@@]3(C)[C@@H]4CC[C@H](C(C)C)[C@@]4(C)CC[C@]23C)[C@@]1(C)CCC(=O)OCc1ccccc1

Activity [1]: inactive
SMILES: CC(C)[C@H]1CC[C@@H]2[C@]1(C)CC[C@]1(C)C3=C(C(=O)C[C@@]21C)[C@@]1(C)CC[C@H](O)C(C)(C)C1CC3=O (some centres undefined)

Activity [2]: Slight inhibition
Activity [3]: inactive
Activity [4]: inactive
Activity [5]: Evidence inhibition
Activity [6]: inactive
Activity [7]: inactive
SMILES: COc1cc([C@@H]2c3cc4c(cc3[C@@H](O[C@@H]3O[C@@H]5CO[C@@H](C)O[C@H]5[C@H](O)[C@H]3O)[C@H]3COC(=O)[C@H]23)OCO4)cc(OC)c1O

Activity [8]: Slight inhibition
Activity [9]: Evidence inhibition
Activity [10]: Slight inhibition
Activity [11]: Slight inhibition
Activity [3]: inactive
Activity [12]: Slight inhibition
SMILES: C=C(C)[C@@H]1CC[C@@H]2C(=CC[C@@]3(C)[C@@H]4CC[C@H](C(C)C)[C@@]4(C)CC[C@]23C)[C@@]1(C)CCC(=O)O

Activity [8]: Slight inhibition
Activity [9]: Evidence inhibition
Activity [10]: Slight inhibition
Activity [11]: Slight inhibition
Activity [3]: inactive
Activity [12]: Slight inhibition
SMILES: C=C(C)[C@@H]1CC[C@@H]2C(=CC[C@@]3(C)[C@@H]4CC[C@H](C(C)C)[C@@]4(C)CC[C@]23C)[C@@]1(C)CCCO

Activity [1]: inactive
SMILES: CC(C)[C@H]1CC[C@@H]2[C@]1(C)CC[C@]1(C)C3=C([C@H](O)C[C@@]21C)[C@@]1(C)CC[C@H](O)C(C)(C)C1CC3=O (some centres undefined)

Activity [1]: inactive
SMILES: C=C(C)[C@@H]1CC[C@@H]2C(=CC[C@@]3(C)[C@@H]4CC[C@H](C(C)C)[C@@]4(C)CC[C@]23C)[C@@]1(C)CCC(=O)OC
